Experimental data from article PMC10127945 (Nature chemical biology, 2022).

Experiments:
SARS-CoV-2 = format: cell-based, SARS-CoV-2 (USA-WA1/2020)
ACE2 = ACE2 (Homo sapiens, UniProt Q9BYF1); test: Biotin-switch assay for SNO-ACE2 in HeLa-ACE2 cells; format: cell-based; settings: 100 μM SNOC
TMPRSS2 = TMPRSS2 (Homo sapiens, UniProt O15393); test: Biotin-switch assay for SNO-TMPRSS2; format: cell-based; settings: 100 μM SNOC, 20 minutes, HeLa-ACE2 cells
SARS-CoV-2 Spike protein = SARS-CoV-2 Spike protein (Severe acute respiratory syndrome coronavirus 2, UniProt P0DTC2); format: biochemical
[1] = biological target: ACE2/SARS-CoV-2 Spike protein binding (Homo sapiens, UniProt Q9BYF1); format: cell-based
ACE2/SARS-CoV-2 Spike protein binding, sequence (Q9BYF1 18-805 limits assumed): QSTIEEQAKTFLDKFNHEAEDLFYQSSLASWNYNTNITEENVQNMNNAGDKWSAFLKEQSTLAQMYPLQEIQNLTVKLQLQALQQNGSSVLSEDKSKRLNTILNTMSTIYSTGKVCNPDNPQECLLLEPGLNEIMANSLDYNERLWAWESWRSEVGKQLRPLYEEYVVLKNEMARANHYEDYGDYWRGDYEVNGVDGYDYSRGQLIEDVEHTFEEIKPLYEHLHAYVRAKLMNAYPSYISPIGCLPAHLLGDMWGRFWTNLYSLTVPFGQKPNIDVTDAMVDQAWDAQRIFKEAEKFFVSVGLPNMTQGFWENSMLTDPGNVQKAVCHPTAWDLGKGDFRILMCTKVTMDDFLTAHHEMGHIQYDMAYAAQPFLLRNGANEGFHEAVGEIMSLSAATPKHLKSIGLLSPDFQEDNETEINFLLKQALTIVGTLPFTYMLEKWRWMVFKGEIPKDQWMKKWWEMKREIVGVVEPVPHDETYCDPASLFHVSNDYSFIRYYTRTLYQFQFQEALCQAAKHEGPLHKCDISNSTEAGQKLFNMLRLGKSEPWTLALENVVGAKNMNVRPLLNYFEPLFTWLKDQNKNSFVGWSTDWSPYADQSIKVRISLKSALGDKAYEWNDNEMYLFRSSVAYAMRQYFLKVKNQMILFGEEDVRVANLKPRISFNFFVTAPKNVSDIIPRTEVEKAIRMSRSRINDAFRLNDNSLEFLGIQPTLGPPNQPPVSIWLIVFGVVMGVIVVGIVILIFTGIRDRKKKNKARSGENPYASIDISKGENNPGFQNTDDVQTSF

[2] = Stability in aqueous solution; format: physicochemical; settings: neutral pH
[3] = biological target: SARS-CoV-2 envelope (E) protein viroporin ion channel (Severe acute respiratory syndrome coronavirus 2, UniProt P0DTC4); format: cell-based
SARS-CoV-2 envelope (E) protein viroporin ion channel, sequence (P0DTC4 whole entry): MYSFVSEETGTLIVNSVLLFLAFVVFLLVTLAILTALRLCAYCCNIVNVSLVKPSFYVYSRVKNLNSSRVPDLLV

ACE2, sequence (Q9BYF1 18-805): as the sequence (Q9BYF1 18-805 limits assumed) above
TMPRSS2, sequence (O15393 whole entry): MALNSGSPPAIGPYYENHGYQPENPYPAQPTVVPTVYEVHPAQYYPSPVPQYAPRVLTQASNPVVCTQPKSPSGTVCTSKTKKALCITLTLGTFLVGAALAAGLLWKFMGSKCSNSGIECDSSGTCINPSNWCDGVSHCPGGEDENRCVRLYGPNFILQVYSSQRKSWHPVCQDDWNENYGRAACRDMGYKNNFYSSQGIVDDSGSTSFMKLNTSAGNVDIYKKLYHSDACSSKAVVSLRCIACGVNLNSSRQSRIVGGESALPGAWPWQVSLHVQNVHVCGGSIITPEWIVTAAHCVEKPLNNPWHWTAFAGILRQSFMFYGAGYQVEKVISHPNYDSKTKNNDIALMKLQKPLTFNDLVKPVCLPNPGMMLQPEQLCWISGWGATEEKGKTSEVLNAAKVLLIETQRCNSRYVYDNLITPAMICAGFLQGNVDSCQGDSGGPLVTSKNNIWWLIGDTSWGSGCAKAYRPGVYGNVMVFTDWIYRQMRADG

Molecule	efficacy against live SARS-CoV-2 infection (SARS-CoV-2)	stability (persistence) of SNO-ACE2 formation (ACE2)	S-nitrosylation of ACE2 (ACE2; 20 minutes)	S-nitrosylation of TMPRSS2 (TMPRSS2)	S-nitrosylation of Spike protein (SARS-CoV-2 Spike protein)	binding of purified S protein to HeLa-ACE2 cells [1]	time for NO to dissipate [2] [min]	inhibition of E protein voltage-dependent K+ current [3]
NC12CC3CC(CC(C3)C1)C2 [amantadine]	no efficacy	–	–	–	–	–	–	–
S-nitrosocysteine [SNOC]	–	at least 12 h	could be S-nitrosylated	could be S-nitrosylated	Lack of S-nitrosylation	significantly decreased binding	< 5	–
CC12CC3CC(C)(C1)CC(N)(C3)C2 [memantine]	no efficacy	–	–	–	–	–	–	inhibited
